Data as given in US20200352912A1, “ANTIMICROBIAL COMPOSITIONS AND METHODS OF USING THE SAME” (The Board Of Supervisors Of Louisiana State University And …, priority 2018, published 2020).
pKi: −log10 of the molar value.

What was measured:
planktonic S. aureus = test: MIC/MBC assay (CLSI broth dilution); type: cell-based; details: Staphylococcus aureus
Description: The CLSI reference method for broth dilution antimicrobial susceptibility testing of bacteria was used to determine the MIC of L-161, 982 (CLSI, 2008). Based on inhibition of S. aureus in the planktonic assay, TSB was used for all antimicrobial susceptibility testing of S. aureus. Cells were diluted in sterile TSB to a final concentration of 5.0×10^5 CFU/ml and 200-μl aliquots (1×10^5 CFU/well) were added to wells of sterile round-bottom 96-well plates. A stock solution of L-161, 982 was diluted in sterile TSB prior to addition to cells. Drug concentrations tested ranged from 1 to 100 μg/ml and were tested in triplicate. The plates were incubated at 37° C. for 24 h and the OD600 measured using a microplate spectrophotometer (BioTek Instruments, Synergy 2). Bacteriostatic or bactericidal activity was assessed by plating 20 μl of broth from all wells with no visible growth on TSA plates and plates incubated at 37° C. for 24-48 h. The MBC was the lowest drug concentration that prevented growth.

S. aureus [1] = test: generation of hydroxyl radicals (thiourea scavenger); type: cell-based, Staphylococcus aureus; details: 50 μg/ml, 150 mM thiourea
Description: (A) Effects of reactive oxygen species inhibitors. Growth of S. aureus was monitored for up to 6 h in medium alone or medium supplemented with 15 mM of Na-L-ascorbate, and/or 15 mM N-acetyl-L-cysteine, and/or 50 μg/ml L-161, 982. Data shown are representative of two independent experiments. (B) Effects of hydroxyl radical scavengers. Growth was monitored for 4 h in medium alone or medium supplemented with 50 μg/ml L-161, 982 or 1 mM H2O2 alone, plus 150 mM thiourea, or plus 500 μM 2,2′-dipyridyl.
Generation of hydroxyl radicals. Antibiotic induced hydroxyl radical production was measured as previously described (12). Overnight cultures of S. aureus were diluted 1:100 in TSB and grown for 3 h at 37° C. with shaking to mid-log phase. Cultures were diluted in TSB to OD600=0.05 and L-161, 982 was added at a final concentration of 50 µg/ml+/−H2O2 (1 mM; Sigma) or thiourea (150 mM; Sigma). Cultures were incubated at 37° C. with shaking and aliquots were removed at t(0) and at 1 h intervals duplicate, diluted 1:100 and optical density measured at 600 nm (OD600) or serially diluted and plated onto SDA and grown at 37° C. for 24 h for CFU enumeration.

S. aureus [2] = test: ATP detection assay (BacTiter-Glo); type: cell-based, Staphylococcus aureus; details: 12.5-200 μg/ml, 5 h
Description: S. aureus was incubated with various concentrations of L-161,982 in a 96-well plate in triplicate for 5 h at 37° C. ATP production was measured in samples normalized to viable cell number using the BacTiter-Glo™ Assay (Promega) and measuring luminescence. Background luminescence from media alone samples was subtracted from experimental samples. Results represent the means+/−standard deviation. Data shown are representative of two independent experiments. ** p<0.01; *** p<0.001 control vs drug-treated.
ATP detection assay. S. aureus was diluted 100-fold in 10 ml of fresh Mueller Hinton II broth which was used as the inoculum. The inoculum was incubated with various concentrations of L-161,982 (12.5-200 μg/ml) in a 96-well plate in triplicate for 5 h at 37° C. After incubation, cells L-161,982 were stained with LIVE/DEAD Baclight bacterial viability stain (Invitrogen) and viable cells were counted. Samples were normalized to viable cell number before transferring to an opaque-walled 96-well plate. An equal volume of BacTiter-Glo™ Reagent (Promega) was added. The plate was allowed to develop for 5 min at room temperature. Luminescence was quantified using a BioTek Synergy 2 plate reader. A media alone control was used to detect background luminescence.

DP = DP (Homo sapiens, UniProt Q13258); details: cited from earlier work
E. coli = test: spectrum of activity, bacterial growth; type: cell-based, Escherichia coli; details: 50 μg/ml, 6 h
Description: Bacterial growth was monitored for 6 h in medium alone or supplemented with 50 μg/ml of L-161, 982. Data shown is representative of three independent experiments.
Strains and growth conditions. The methicillin-resistant S. aureus strain NRS383 used in all experiments was obtained from the Network on Antimicrobial Resistance in S. aureus (NARSA) data bank. NRS383 is positive for the toxic shock syndrome toxin (tst) and 6-toxin genes. SJ-MRSA 6 and SJ-SA5 are methicillin-resistant (MRSA) and methicillin-sensitive (MSSA) clinical S. aureus strains respectively isolated from a patient's catheter. Other bacterial species used in this study include Escherichia coli (ATCC 25922, clinical isolate), S. epidermidis (ATCC 12228), Klebsiella pneumonia (ATCC 43816), Enterococcus faecalis (ATCC 51299, clinical isolate), and Streptococcus mutans (UA159, 12). S. mutans strain was maintained in brain heart infusion (BHI) broth while the other bacterial species were maintained in Luria-Bertani broth. Frozen stocks were obtained at −80° C. and streaked onto agar plates at 37° C. prior to use. A single colony was transferred to 10 ml of culture broth and shaken at 37° C. overnight. On the following day, the overnight culture was diluted 1:100 in fresh growth medium and shaken at 37° C. for 3 h to obtain cells in mid-log growth phase. S. mutans cultures were grown without agitation in the presence of 5% CO2. […]

EP2 = EP2 (Homo sapiens, UniProt P43116); details: cited from earlier work
EP2, sequence (P43116 whole entry): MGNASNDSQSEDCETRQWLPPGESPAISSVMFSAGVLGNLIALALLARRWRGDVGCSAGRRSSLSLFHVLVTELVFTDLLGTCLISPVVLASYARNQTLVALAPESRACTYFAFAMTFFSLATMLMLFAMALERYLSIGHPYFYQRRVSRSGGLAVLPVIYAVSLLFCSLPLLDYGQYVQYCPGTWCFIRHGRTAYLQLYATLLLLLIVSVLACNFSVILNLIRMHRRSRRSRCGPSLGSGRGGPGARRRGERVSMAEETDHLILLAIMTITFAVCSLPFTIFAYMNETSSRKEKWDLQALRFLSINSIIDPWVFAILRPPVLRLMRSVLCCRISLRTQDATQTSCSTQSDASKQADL

DP, sequence (Q13258 whole entry): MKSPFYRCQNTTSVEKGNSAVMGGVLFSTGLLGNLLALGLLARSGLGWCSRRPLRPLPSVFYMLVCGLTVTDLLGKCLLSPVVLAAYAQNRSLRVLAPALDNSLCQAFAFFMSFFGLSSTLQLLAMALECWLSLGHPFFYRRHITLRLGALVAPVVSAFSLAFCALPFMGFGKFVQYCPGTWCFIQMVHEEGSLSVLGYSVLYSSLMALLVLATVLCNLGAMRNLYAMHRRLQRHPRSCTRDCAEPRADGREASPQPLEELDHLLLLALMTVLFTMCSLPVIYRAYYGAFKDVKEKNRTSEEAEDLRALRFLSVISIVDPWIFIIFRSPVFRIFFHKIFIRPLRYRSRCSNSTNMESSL

CCCCc1nn(-c2ccccc2C(F)(F)F)c(=O)n1Cc1ccc(-c2ccccc2S(=O)(=O)NC(=O)c2sccc2C)cc1 [L-161, 982, N-[[4′-[[3-Butyl-1,5-dihydro-5-oxo-1-[2-(trifluoromethyl)phenyl]-4H-1,2,4-triazol-4-yl]methyl][1,1′-biphenyl]-2-yl]sulfonyl]-3-methyl-2-thiophenecarboxamide]
MBC (planktonic S. aureus): 100 µg/mL
MIC (planktonic S. aureus; TSB, 24 h, read-out: minimum inhibitory concentration (MIC)): 50 µg/mL
effect of thiourea on growth inhibition (S. aureus [1]): did not alleviate
ATP production (S. aureus [2]): significantly inhibited ATP production
pKi (DP): 5.29
growth inhibitory activity (E. coli): No inhibitory effects
pKi (EP2): 4.64
